US4081441A, “Antibacterial agents” (priority 1977, dated 1978)
Structures can show the parent of a compound that is named as a salt. Where two headings read alike, the source gives them in different places.

Assays:
[1] = tested on: Pseudomonas aeruginosa A9843A; format: in vivo, mice; conditions: intramuscular, mice; as effective as combination 1.25 mg./kg. BL-P1908 + 2 mg./kg. amikacin
Pseudomonas aeruginosa [2] = experiment: In vitro bactericidal synergism, broth dilution checkerboard; format: cell-based; conditions: for MBC: Pseudomonas aeruginosa, drug alone
Pseudomonas aeruginosa [3] = conditions: prior art; cited from earlier work

NCC[C@H](O)C(=O)N[C@@H]1C[C@H](N)[C@@H](O[C@H]2O[C@H](CN)[C@@H](O)[C@H](O)[C@H]2O)[C@H](O)[C@H]1O[C@H]1O[C@H](CO)[C@@H](O)[C@H](N)[C@H]1O [Amikacin, 1-[L-(-)-γ-amino-α-hydroxybutryl]kanamycin A]
equally effective dosage, drug alone [1]: 8 mg/kg
MBC (Pseudomonas aeruginosa [2]; strain A20552, read-out: Minimum Bactericidal Concentration): 8 µg/mL
MBC (Pseudomonas aeruginosa [2]; strain A21509, read-out: Minimum Bactericidal Concentration): 125 µg/mL
MBC (Pseudomonas aeruginosa [2]; strain A21510, read-out: Minimum Bactericidal Concentration): 64 µg/mL
strain sensitivity (Pseudomonas aeruginosa [2]; strain A9843A): sensitive
strain sensitivity (Pseudomonas aeruginosa [2]; strain A20480): sensitive
strain sensitivity (Pseudomonas aeruginosa [2]; strain A20552): sensitive
strain sensitivity (Pseudomonas aeruginosa [2]; strain A20620): resistant
strain sensitivity (Pseudomonas aeruginosa [2]; strain A21509): resistant
strain sensitivity (Pseudomonas aeruginosa [2]; strain A21510): resistant

NCC[C@H](O)C(=O)N[C@@H]1C[C@H](N)[C@@H](O[C@H]2O[C@H](CN)[C@@H](O)[C@H](O)[C@H]2O)[C@H](O)[C@H]1O[C@H]1O[C@H](CO)[C@@H](O)[C@H](N)[C@H]1O [amikacin sulfate]
MBC (Pseudomonas aeruginosa [2]; read-out: Minimum Bactericidal Concentration, strain A9843A): 4 µg/mL

CC1(C)S[C@@H]2[C@H](NC(=O)C(c3ccccc3)S(=O)(=O)O)C(=O)N2[C@H]1C(=O)O (stereo partly shown) [sulbenicillin]
potency against Pseudomonas aeruginosa (Pseudomonas aeruginosa [3]): relatively low potency

CC1(C)S[C@@H]2[C@H](NC(=O)[C@H](C(=O)O)c3ccsc3)C(=O)N2[C@H]1C(=O)O [ticarcillin]
potency against Pseudomonas aeruginosa (Pseudomonas aeruginosa [3]): relatively low potency
